Source: paper PMC8296573, “Synthesis and Biological Evaluation of Fingolimod Derivatives as Antibacterial Agents” (ACS Omega, 2021)
Converted amounts (≈) assume the structure as drawn. Like-named read-outs stand apart in the source and are kept apart here. Marks after values point to notes of the source that are not given here.

Legend:
[1] = system: S. aureus ATCC 25923; assay: Antibacterial activity, pre-exposure (planktonic cells and biofilm formation); format: cell-based, Staphylococcus aureus; settings: for inhibition at 5 µM / inhibition at 10 µM / inhibition at 15 µM / inhibition at 25 µM / Average inhibition %, biofilms viability / Average inhibition %, planktonic cells viability: pre-exposure, ± SD
In short: (§1)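 Read-outs were turbidity and resazurin reduction for planktonic cells, and resazurin followed by crystal violet biomass (A595) for biofilms. Compounds were present from inoculation onward, with 18 h aerobic growth at 37 °C under shaking.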

[2] = system: S. aureus ATCC 25923; assay: Antibacterial activity, post-exposure on preformed 18-h-old biofilms; format: cell-based, Staphylococcus aureus; settings: ± SD; for inhibition at 25 µM / inhibition at 50 µM / inhibition at 100 µM / inhibition at 200 µM: Staphylococcus aureus; for inhibition at 25 µM: ATCC25923, 25 µM; for inhibition at 50 µM: ATCC25923, 50 µM; for inhibition at 100 µM: ATCC25923, 100 µM; for inhibition at 200 µM: ATCC25923, 200 µM
In short: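 Biofilms grown 18 h without compound, medium then replaced and compound added for a further 24 h. Planktonic OD and resazurin (20 μM final) fluorescence (ex 560/em 590 nm) read; washed biofilms stained with 20 μM resazurin 30 min at 37 °C, then ethanol-fixed and crystal violet-stained, absorbance 595 nm.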

[3] = system: A. baumannii NCTC 13423; assay: Antibacterial activity, pre-exposure; format: cell-based, Acinetobacter baumannii; settings: for Average inhibition %, biofilms viability / Average inhibition %, planktonic cells viability / inhibition at 10 µM / inhibition at 15 µM / inhibition at 25 µM / inhibition at 50 µM: A. baumannii NCTC 13423, pre-exposure, ± SD
In short: as §1

[4] = system: P. aeruginosa ATCC 9027; assay: Antibacterial activity, pre-exposure; format: cell-based, Pseudomonas aeruginosa; settings: for Average inhibition %, biofilms viability / Average inhibition %, planktonic cells viability / inhibition at 50 µM / inhibition at 100 µM / inhibition at 150 µM / inhibition at 200 µM: P. aeruginosa ATCC 9027, pre-exposure, ± SD; for inhibition at 50 µM / inhibition at 100 µM / inhibition at 150 µM / inhibition at 200 µM: ATCC9027
In short: as §1

[5] = read-out: Average inhibition %, biofilms biomass
[6] = read-out: Average inhibition %, planktonic cells turbidity

## CCCCCCCCc1ccc(CCC(N)(CO)CO)cc1 [fingolimod, Fingolimod]
[1]; Staphylococcus aureus, ATCC25923, lowest concentration with no visible growth (>90% inhibition of turbidity and viability of planktonic cells), 18 h, read-out: MIC S. aureus ATCC 25923
  MIC: 15 µM (≈ 4.61 µg/mL)
[1]; Staphylococcus aureus, ATCC25923, 5 µM, read-out: Average inhibition %, biofilms biomass
  inhibition at 5 µM: 37 ± 11.2%
[1]; Staphylococcus aureus, ATCC25923, 5 µM, read-out: Average inhibition %, planktonic cells turbidity
  inhibition at 5 µM: 25 ± 10.6%
[1]; Staphylococcus aureus, ATCC25923, 10 µM, read-out: Average inhibition %, biofilms biomass
  inhibition at 10 µM: 42.2 ± 5%
[1]; Staphylococcus aureus, ATCC25923, 10 µM, read-out: Average inhibition %, planktonic cells turbidity
  inhibition at 10 µM: 36.7 ± 10%
[1]; Staphylococcus aureus, ATCC25923, 15 µM, read-out: Average inhibition %, biofilms biomass
  inhibition at 15 µM: 91.7 ± 6%
[1]; Staphylococcus aureus, ATCC25923, 15 µM, read-out: Average inhibition %, planktonic cells turbidity
  inhibition at 15 µM: 99.8 ± 0.1%
[1]; Staphylococcus aureus, ATCC25923, 25 µM, read-out: Average inhibition %, biofilms biomass
  inhibition at 25 µM: 90.8 ± 6.9%
[1]; Staphylococcus aureus, ATCC25923, 25 µM, read-out: Average inhibition %, planktonic cells turbidity
  inhibition at 25 µM: 99.8 ± 0.1%
[1]; 5 µM
  Average inhibition %, biofilms viability: 38.7 ± 5.5%
  Average inhibition %, planktonic cells viability: 16.1 ± 26.5%
[1]; 10 µM
  Average inhibition %, biofilms viability: 41.5 ± 7.1%
  Average inhibition %, planktonic cells viability: 17.2 ± 23.4%
[1]; 15 µM
  Average inhibition %, biofilms viability: 99.7 ± 0.2%
  Average inhibition %, planktonic cells viability: 99.9 ± 0%
[1]; 25 µM
  Average inhibition %, biofilms viability: 99.5 ± 0.1%
  Average inhibition %, planktonic cells viability: 99.9 ± 0.1%
[2]; 25 µM
  Average inhibition %, biofilms viability: 19.2 ± 14.5%
  Average inhibition %, planktonic cells viability: 7.8 ± 3.6%
[2]; 50 µM
  Average inhibition %, biofilms viability: 35 ± 7%
  Average inhibition %, planktonic cells viability: 2.9 ± 2.6%
[2]; 100 µM
  Average inhibition %, biofilms viability: 52.2 ± 12.4%
  Average inhibition %, planktonic cells viability: 48.9 ± 16.2%
[2]; 200 µM
  Average inhibition %, biofilms viability: 77.3 ± 19%
  Average inhibition %, planktonic cells viability: 90.5 ± 9.9%
[2]; [5]
  inhibition at 25 µM: 39.7 ± 16.2%
  inhibition at 50 µM: 60.7 ± 12.4%
  inhibition at 100 µM: 67.3 ± 9.5%
  inhibition at 200 µM: 71 ± 11%
[2]; [6]
  inhibition at 25 µM: 1.1 ± 2%
  inhibition at 50 µM: 13.8 ± 11.2%
  inhibition at 100 µM: 42.4 ± 7%
  inhibition at 200 µM: 75.5 ± 11%
[3]; 10 µM
  Average inhibition %, biofilms viability: 0.2 ± 0.5%
  Average inhibition %, planktonic cells viability: 5.9 ± 4.9%
[3]; 15 µM
  Average inhibition %, biofilms viability: 63.6 ± 31.5%
  Average inhibition %, planktonic cells viability: 74.1 ± 38.2%
[3]; 25 µM
  Average inhibition %, biofilms viability: 97.6 ± 2.3%
  Average inhibition %, planktonic cells viability: 99.5 ± 0.3%
[3]; 50 µM
  Average inhibition %, biofilms viability: 98.4 ± 1.1%
  Average inhibition %, planktonic cells viability: 99.4 ± 0.4%
[3]; Acinetobacter baumannii, NCTC13423, 10 µM, read-out: Average inhibition %, biofilms biomass
  inhibition at 10 µM: 1.9 ± 3.9%
[3]; Acinetobacter baumannii, NCTC13423, 10 µM, read-out: Average inhibition %, planktonic cells turbidity
  inhibition at 10 µM: 0%
[3]; Acinetobacter baumannii, NCTC13423, 15 µM, read-out: Average inhibition %, biofilms biomass
  inhibition at 15 µM: 44.1 ± 26.9%
[3]; Acinetobacter baumannii, NCTC13423, 15 µM, read-out: Average inhibition %, planktonic cells turbidity
  inhibition at 15 µM: 71.1 ± 37.7%
[3]; Acinetobacter baumannii, NCTC13423, 25 µM, read-out: Average inhibition %, biofilms biomass
  inhibition at 25 µM: 79.2 ± 13.4%
[3]; Acinetobacter baumannii, NCTC13423, 25 µM, read-out: Average inhibition %, planktonic cells turbidity
  inhibition at 25 µM: 98.8 ± 2%
[3]; Acinetobacter baumannii, NCTC13423, 50 µM, read-out: Average inhibition %, biofilms biomass
  inhibition at 50 µM: 84.8 ± 7.8%
[3]; Acinetobacter baumannii, NCTC13423, 50 µM, read-out: Average inhibition %, planktonic cells turbidity
  inhibition at 50 µM: 98.5 ± 1.4%
[3]; Acinetobacter baumannii, NCTC13423, pre-exposure, Inactive = no activity up to 50 μM, > = some inhibition but no MIC reached, read-out: MIC A. baumannii NCTC 13423
  MIC: 25 µM (≈ 7.69 µg/mL)
[4]; 50 µM
  Average inhibition %, biofilms viability: 12.4 ± 13.4%
  Average inhibition %, planktonic cells viability: 43.9 ± 35.5%
[4]; 100 µM
  Average inhibition %, biofilms viability: 36.5 ± 23.1%
  Average inhibition %, planktonic cells viability: 92.5 ± 4.8%
[4]; 150 µM
  Average inhibition %, biofilms viability: 42.4 ± 25.3%
  Average inhibition %, planktonic cells viability: 94.2 ± 3.6%
[4]; 200 µM
  Average inhibition %, biofilms viability: 47.5 ± 22.6%
  Average inhibition %, planktonic cells viability: 95 ± 1.2%
[4]; Pseudomonas aeruginosa, ATCC9027, pre-exposure, Inactive = no activity up to 200 μM, > = some inhibition but no MIC reached, read-out: MIC P. aeruginosa ATCC 9027
  MIC: > 200 µM
[4]; Pseudomonas aeruginosa, 50 µM, read-out: Average inhibition %, biofilms biomass
  inhibition at 50 µM: 30.1 ± 16.2%
[4]; Pseudomonas aeruginosa, 50 µM, read-out: Average inhibition %, planktonic cells turbidity
  inhibition at 50 µM: 51.5 ± 24%
[4]; Pseudomonas aeruginosa, 100 µM, read-out: Average inhibition %, biofilms biomass
  inhibition at 100 µM: 36.9 ± 13.7%
[4]; Pseudomonas aeruginosa, 100 µM, read-out: Average inhibition %, planktonic cells turbidity
  inhibition at 100 µM: 85.9 ± 3.6%
[4]; Pseudomonas aeruginosa, 150 µM, read-out: Average inhibition %, biofilms biomass
  inhibition at 150 µM: 40.7 ± 17.8%
[4]; Pseudomonas aeruginosa, 150 µM, read-out: Average inhibition %, planktonic cells turbidity
  inhibition at 150 µM: 86.8 ± 3.4%
[4]; Pseudomonas aeruginosa, 200 µM, read-out: Average inhibition %, biofilms biomass
  inhibition at 200 µM: 45.4 ± 18.5%
[4]; Pseudomonas aeruginosa, 200 µM, read-out: Average inhibition %, planktonic cells turbidity
  inhibition at 200 µM: 85.1 ± 3.8%
[4]; pre-exposure, Inactive = no activity up to 200 μM, > = some inhibition but no MIC reached, listed as Fgd
  MIC P. aeruginosa ATCC 9027: > 200 ^b μM
